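Grown in 96-well plates, cells were treated for 48 hours with each compound at five concentrations. Insufficient inhibition: endpoint recorded as highest concentration tested. GI50: concentration for 50% inhibition of growth.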 The source made the active and inactive calls. No stated cut-off is given here; in the data, active = GI50 up to about 1.1 µM and inactive = higher.
Key:
Test in all cases: NCI-60 cell line screen, 48 h
786-0 = tested on: 786-0
A498 = tested on: A498
A549 = tested on: A549
ACHN = tested on: ACHN
CAKI-1 = tested on: CAKI-1
CCRF-CEM = tested on: CCRF-CEM
COLO 205 = tested on: COLO 205
DU-145 = tested on: DU-145
EKVX = tested on: EKVX
HCC 2998 = tested on: HCC 2998
HCT-116 = tested on: HCT-116
HCT-15 = tested on: HCT-15
HL-60 = tested on: HL-60
HOP-62 = tested on: HOP-62
HOP-92 = tested on: HOP-92
HT-29 = tested on: HT-29
Hs-578T = tested on: Hs-578T
IGROV-1 = tested on: IGROV-1
K562 = tested on: K562
KM12 = tested on: KM12
LOX IMVI = tested on: LOX IMVI
MCF7 = tested on: MCF7
MDA-MB-231 = tested on: MDA-MB-231
MDA-N = tested on: MDA-N
MOLT-4 = tested on: MOLT-4
Malme-3M = tested on: Malme-3M
NCI-H23 = tested on: NCI-H23
NCI-H460 = tested on: NCI-H460
NCI/ADR-RES = tested on: NCI/ADR-RES
OVCAR-3 = tested on: OVCAR-3
OVCAR-4 = tested on: OVCAR-4
OVCAR-5 = tested on: OVCAR-5
OVCAR-8 = tested on: OVCAR-8
PC-3 = tested on: PC-3
RPMI-8226 = tested on: RPMI-8226
SF-268 = tested on: SF-268
SF-295 = tested on: SF-295
SF-539 = tested on: SF-539
SK-MEL-28 = tested on: SK-MEL-28
SK-MEL-2 = tested on: SK-MEL-2
SK-MEL-5 = tested on: SK-MEL-5
SK-OV-3 = tested on: SK-OV-3
SN12C = tested on: SN12C
SNB-19 = tested on: SNB-19
SNB-75 = tested on: SNB-75
SR = tested on: SR
SW-620 = tested on: SW-620
T47D = tested on: T47D
TK-10 = tested on: TK-10
U-251 = tested on: U-251
UACC-257 = tested on: UACC-257
UO-31 = tested on: UO-31
BT-549 = tested on: BT-549
M14 = tested on: M14
MDA-MB-435 = tested on: MDA-MB-435
NCI-H226 = tested on: NCI-H226
RXF 393 = tested on: RXF 393
UACC-62 = tested on: UACC-62

SMILES: O=C(Nc1ccccc1)N(C1=NCC(CI)S1)c1ccc(F)c(F)c1 (stereo not drawn)
- GI50 (786-0): 43.2 µM (inactive)
- GI50 (A498): 24.9 µM (inactive)
- GI50 (A549): 26.4 µM (inactive)
- GI50 (ACHN): 49.4 µM (inactive)
- GI50 (CAKI-1): 24.1 µM (inactive)
- GI50 (CCRF-CEM): 19.3 µM (inactive)
- GI50 (COLO 205): 56.1 µM (inactive)
- GI50 (DU-145): > 100 µM (inactive)
- GI50 (EKVX): > 100 µM (inactive)
- GI50 (HCC 2998): 55.8 µM (inactive)
- GI50 (HCT-116): 29.1 µM (inactive)
- GI50 (HCT-15): 28.1 µM
- GI50 (HL-60): 21.4 µM (inactive)
- GI50 (HOP-62): > 100 µM (inactive)
- GI50 (HOP-92): 7.03 µM (inactive)
- GI50 (HT-29): 27 µM (inactive)
- GI50 (Hs-578T): 64 µM (inactive)
- GI50 (IGROV-1): 38.8 µM (inactive)
- GI50 (K562): 27 µM (inactive)
- GI50 (KM12): 32.6 µM (inactive)
- GI50 (LOX IMVI): 15.2 µM (inactive)
- GI50 (MCF7): 22.4 µM (inactive)
- GI50 (MDA-MB-231): 24.8 µM (inactive)
- GI50 (MDA-N): 24.6 µM (inactive)
- GI50 (MOLT-4): 19.5 µM (inactive)
- GI50 (Malme-3M): 55.7 µM (inactive)
- GI50 (NCI-H23): 29.2 µM (inactive)
- GI50 (NCI-H460): 35.2 µM (inactive)
- GI50 (NCI/ADR-RES): 30.8 µM (inactive)
- GI50 (OVCAR-3): 28.3 µM (inactive)
- GI50 (OVCAR-4): 29.4 µM (inactive)
- GI50 (OVCAR-5): > 100 µM (inactive)
- GI50 (OVCAR-8): 47.8 µM (inactive)
- GI50 (PC-3): 25.4 µM (inactive)
- GI50 (RPMI-8226): 21.2 µM (inactive)
- GI50 (SF-268): 21.3 µM (inactive)
- GI50 (SF-295): > 100 µM (inactive)
- GI50 (SF-539): 33.2 µM (inactive)
- GI50 (SK-MEL-28): 12.4 µM (inactive)
- GI50 (SK-MEL-2): 23.9 µM (inactive)
- GI50 (SK-MEL-5): 17.3 µM (inactive)
- GI50 (SK-OV-3): > 100 µM (inactive)
- GI50 (SN12C): 81.5 µM (inactive)
- GI50 (SNB-19): > 100 µM (inactive)
- GI50 (SNB-75): 12.6 µM (inactive)
- GI50 (SR): 23.8 µM (inactive)
- GI50 (SW-620): 28.2 µM (inactive)
- GI50 (T47D): 18.3 µM (inactive)
- GI50 (TK-10): 44 µM (inactive)
- GI50 (U-251): 54.1 µM (inactive)
- GI50 (UACC-257): 31 µM (inactive)
- GI50 (UO-31): 44.7 µM (inactive)

SMILES: CC(C)(C)[Si](C)(C)OCC1OC(n2cnc3c(N)ncnc32)C2OC(=S)OC12 (stereo not drawn)
- GI50 (A498): 52.7 µM (inactive)
- GI50 (BT-549): 25.1 µM (inactive)
- GI50 (CAKI-1): 41.3 µM (inactive)
- GI50 (CCRF-CEM): 12.7 µM (inactive)
- GI50 (COLO 205): 35.6 µM (inactive)
- GI50 (DU-145): 25.1 µM (inactive)
- GI50 (HCT-116): 27.4 µM (inactive)
- GI50 (HCT-15): 26.2 µM
- GI50 (HL-60): > 100 µM (inactive)
- GI50 (HOP-62): 36.7 µM (inactive)
- GI50 (HOP-92): 70.8 µM (inactive)
- GI50 (HT-29): 29.4 µM (inactive)
- GI50 (Hs-578T): 41.5 µM (inactive)
- GI50 (IGROV-1): 25 µM (inactive)
- GI50 (K562): 4.84 µM (inactive)
- GI50 (KM12): 35 µM (inactive)
- GI50 (LOX IMVI): 28.7 µM (inactive)
- GI50 (M14): 45.5 µM (inactive)
- GI50 (MCF7): 34.6 µM (inactive)
- GI50 (MDA-MB-231): 27.7 µM (inactive)
- GI50 (MDA-MB-435): 19.9 µM (inactive)
- GI50 (MDA-N): 27.2 µM (inactive)
- GI50 (MOLT-4): 16.1 µM (inactive)
- GI50 (Malme-3M): 23.6 µM (inactive)
- GI50 (NCI-H226): 29.4 µM (inactive)
- GI50 (NCI-H23): 21.8 µM (inactive)
- GI50 (NCI-H460): 32.7 µM (inactive)
- GI50 (NCI/ADR-RES): 23.5 µM (inactive)
- GI50 (OVCAR-3): 29.2 µM (inactive)
- GI50 (OVCAR-4): 81.3 µM (inactive)
- GI50 (OVCAR-5): 26.7 µM (inactive)
- GI50 (OVCAR-8): 35.1 µM (inactive)
- GI50 (PC-3): 22 µM (inactive)
- GI50 (RPMI-8226): 37.9 µM (inactive)
- GI50 (RXF 393): 43.9 µM (inactive)
- GI50 (SF-295): 37.4 µM (inactive)
- GI50 (SK-MEL-28): 38.4 µM (inactive)
- GI50 (SK-MEL-2): 26 µM (inactive)
- GI50 (SK-MEL-5): 17 µM (inactive)
- GI50 (SK-OV-3): 19.5 µM (inactive)
- GI50 (SN12C): 35.5 µM (inactive)
- GI50 (SNB-19): 52.1 µM (inactive)
- GI50 (SNB-75): 29.3 µM (inactive)
- GI50 (SR): 38.5 µM (inactive)
- GI50 (SW-620): 32.7 µM (inactive)
- GI50 (TK-10): > 100 µM (inactive)
- GI50 (U-251): 25.2 µM (inactive)
- GI50 (UACC-257): 43.3 µM (inactive)
- GI50 (UACC-62): 23.8 µM (inactive)
- GI50 (UO-31): 23.5 µM (inactive)

SMILES: C[C@@H](c1ccccc1)N1CO[C@@]2(C#Cc3ccc4c(c3)OCO4)CCC[C@@H]12
- GI50 (786-0): 17.8 µM (inactive)
- GI50 (A549): 14.8 µM (inactive)
- GI50 (ACHN): > 100 µM (inactive)
- GI50 (CAKI-1): 16.3 µM (inactive)
- GI50 (CCRF-CEM): 19.8 µM (inactive)
- GI50 (COLO 205): 15.8 µM (inactive)
- GI50 (DU-145): 16.1 µM (inactive)
- GI50 (EKVX): 20.3 µM (inactive)
- GI50 (HCC 2998): 17.9 µM (inactive)
- GI50 (HCT-116): 12 µM (inactive)
- GI50 (HCT-15): 12.6 µM
- GI50 (HL-60): 7.94 µM (inactive)
- GI50 (HOP-62): 15.8 µM (inactive)
- GI50 (HOP-92): 5.3 µM (inactive)
- GI50 (HT-29): 16.6 µM (inactive)
- GI50 (Hs-578T): 15.9 µM (inactive)
- GI50 (IGROV-1): 10.7 µM (inactive)
- GI50 (K562): 13.8 µM (inactive)
- GI50 (KM12): 15.7 µM (inactive)
- GI50 (LOX IMVI): 12.7 µM (inactive)
- GI50 (M14): 14.8 µM (inactive)
- GI50 (MCF7): > 100 µM (inactive)
- GI50 (MDA-MB-231): 13.3 µM (inactive)
- GI50 (MDA-MB-435): 13.7 µM (inactive)
- GI50 (MDA-N): 17.3 µM (inactive)
- GI50 (MOLT-4): 9.59 µM (inactive)
- GI50 (NCI-H226): 20.6 µM (inactive)
- GI50 (NCI-H23): 14.7 µM (inactive)
- GI50 (NCI-H460): 13.3 µM (inactive)
- GI50 (NCI/ADR-RES): 14.7 µM (inactive)
- GI50 (OVCAR-4): 13.8 µM (inactive)
- GI50 (OVCAR-5): 18.1 µM (inactive)
- GI50 (OVCAR-8): 14 µM (inactive)
- GI50 (PC-3): 12.4 µM (inactive)
- GI50 (RPMI-8226): 11.2 µM (inactive)
- GI50 (RXF 393): 11.6 µM (inactive)
- GI50 (SF-295): 14.9 µM (inactive)
- GI50 (SK-MEL-28): 17.5 µM (inactive)
- GI50 (SK-MEL-2): 18.3 µM (inactive)
- GI50 (SK-MEL-5): 13.1 µM (inactive)
- GI50 (SK-OV-3): 17.4 µM (inactive)
- GI50 (SN12C): 17.1 µM (inactive)
- GI50 (SNB-19): 16.1 µM (inactive)
- GI50 (SNB-75): 13.9 µM (inactive)
- GI50 (SR): 8.67 µM (inactive)
- GI50 (T47D): 16.4 µM (inactive)
- GI50 (TK-10): 15.5 µM (inactive)
- GI50 (U-251): 13.6 µM (inactive)
- GI50 (UACC-257): 17.5 µM (inactive)
- GI50 (UACC-62): > 100 µM (inactive)
- GI50 (UO-31): 14.4 µM (inactive)

From ChEMBL document CHEMBL1201862, “PubChem BioAssay data set” (2004)
